From patent publication US12364733B1, “Method for treating septic shock” (Inotrem, priority 2018, dated 2025)
“Also recorded” adds a separate entry of the source.

Key:
Assay type in all cases: in vivo, human
[1] = system: septic shock patients; assay: Phase IIa clinical trial with nangibotide in septic shock patients: mortality; details: for Sepsis-related mortality at 5 days, % / Sepsis-related mortality at 5 days, number of death / Sepsis-related mortality at 28 days, % / Sepsis-related mortality at 28 days, number of death / Sepsis-related mortality at 90 days, % / Sepsis-related mortality at 90 days, number of death: subgroup sTREM-1 at baseline above the median (433pg/mL); for All-cause mortality at 90 days, number of death / All-cause mortality at 5 days, % / All-cause mortality at 5 days, number of death / All-cause mortality at 28 days, % / All-cause mortality at 28 days, number of death / All-cause mortality at 90 days, %: whole population
Experimental: This was a randomized, double-blind, two-stage, placebo-controlled study. As described in FIG. 7, the study was composed of 2 stages with a similar treatment regimen, in which 0.3, 1.0 or 3.0 mg/kg/h of nangibotide (corresponding to peptide LR12, having an amino acid sequence as set forth in SEQ ID NO: 9, also known as motrem) was tested versus placebo. All patients with a diagnosis of septic shock were considered for study participation. All potential study patients underwent standard care management procedures. Patients with evidence of septic shock according to the Sepsis-3 definition (Singer et al, JAMA 2016) were considered for inclusion (i.e., patients suffering from sepsis and having (i) persisting hypotension requiring vasopressors to maintain their mean arterial pressure ≥65 mm Hg and (ii) a serum lactate level >2 mmol/L (18 mg/dL) despite adequate volume resuscitation).
After screening for eligibility, patients were randomized to one of the treatment arms. Then, they received either a 5 mg/kg loading dose of nangibotide over 15 minutes followed by a continuous intravenous (i.v.) infusion of nangibotide or a matching placebo on top of standard of care. Treatment with study drug was initiated as early as possible, but no later than 24 hours after the onset of septic shock, defined by the start of vasopressor therapy. Patients were treated until 12 (±2) hours after the resolution of their septic shock (defined as vasopressor withdrawal) with a maximum treatment duration of 5 days (120 hours).
(§1) Adverse events (AEs) were coded using the MedDRA dictionary version 18.1. Treatment-emergent adverse events (TEAEs) were summarized and listed. Analysis was performed in 49 septic shock patients. The demographic and baseline characteristics were summarized in a descriptive fashion within each population: categorical variables were summarized by contingency tables (frequencies and percentages). sTREM-1 levels at day 1 were also described (mean, standard deviation, standard error, median, quartiles and range, minimum and maximum values). Mortality rates were reported by frequency and percentage. For continuous endpoints, i.e., the sequential organ failure assessment (SOFA), missing data were imputed using LOCF (Last Observation Carry-Forward). For time-to-event analyses, i.e., duration of invasive mechanical ventilation (IMV), duration of continuous renal replacement therapy (CRRT), survival, censored data techniques were utilized. In addition, a sensitivity analysis of time to event data (except survival) was performed using censoring at maximum limit for the corresponding observation period (i.e., either day 28 or day 90). […] The following comparisons were made: each nangibotide dose arm to placebo, all nangibotide doses combined versus placebo, and dose-response using an ordinal trend test. Exploratory composite endpoint: incidence (number and proportion) of patients alive at day 28 and free of vasopressor, free of IMV and free of CRRT were summarized by treatment and compared between treatments with a Fisher's exact test. For pharmacodynamic markers, log transformed data were represented as percentage change from baseline at day 5 or End of Infusion (EOI) if end of infusion was stopped before day 5. […] “All nangibotide” refers to analyses obtained by pooling data from 0.3, 1 and 3 mg/kg/h nangibotide-treated groups.

[2] = system: circulating levels of endothelial injury markers, inflammatory markers and sTREM-1; assay: Phase IIa clinical trial with nangibotide: pharmacodynamic markers
Experimental: The quantitative determination of sTREM-1 was carried out using the method described in Example 2.
as §1

[3] = system: anti-nangibotide antibodies; assay: Immunogenicity: anti-nangibotide antibodies in serum by indirect ELISA; details: baseline, day 8 and day 28
Experimental: Anti-nangibotide antibodies in serum were evaluated at baseline, day 8 and day 28, by an indirect ELISA method validated according to methods described by Shankar et al. (J Pharm Biomed Anal. 2008 Dec. 15; 48(5):1267-81) and EMA guidance on immunogenicity assessment of biotechnology-derived therapeutic proteins (EMEA/CHMP/BMWP/14327/2006 issued on April 2008). Screening samples determined as positive were further assessed using the confirmatory assay where the cut point was established to have 0.1% of false positive samples (Shankar et al., J Pharm Biomed Anal. 2008 Dec. 15; 48(5):1267-81). […] The sensitivity of the assay was established to be 0.3125 pg/mL.

[4] = 0.3 mg/kg/h (N = 6), 1st dose column
[5] = 0.3 mg/kg/h (N = 6), 2nd dose column
[6] = 0.3 mg/kg/h (N = 8), 3rd dose column
[7] = 0.3 mg/kg/h (N = 12), 3rd dose column
[8] = 0.3 mg/kg/h (N = 13), 1st dose column
[9] = 1.0 mg/kg/h (N = 12), 2nd dose column
[10] = pooled (N = 37), listed as nangibotide

## nangibotide (LQEEDAGEYGCM; TLT-1 peptide)
[1]; nangibotide group, whole study
  mortality vs. placebo: consistent trend in the proportion of death patients in favor of nangibotide-treated groups; also recorded: non-significant lower mortality
[1]; [4]
  Sepsis-related mortality at 5 days, %: 17%
  Sepsis-related mortality at 5 days, number of death: 1
  Sepsis-related mortality at 28 days, %: 17%
  Sepsis-related mortality at 28 days, number of death: 1
  Sepsis-related mortality at 90 days, %: 17%
  Sepsis-related mortality at 90 days, number of death: 1
[1]; [5]
  Sepsis-related mortality at 5 days, %: 17%
  Sepsis-related mortality at 5 days, number of death: 1
  Sepsis-related mortality at 28 days, %: 17%
  Sepsis-related mortality at 28 days, number of death: 1
  Sepsis-related mortality at 90 days, %: 17%
  Sepsis-related mortality at 90 days, number of death: 1
[1]; [6]
  Sepsis-related mortality at 5 days, number of death: 2
  Sepsis-related mortality at 28 days, number of death: 2
  Sepsis-related mortality at 90 days, number of death: 2
[1]; pooled (N = 20)
  Sepsis-related mortality at 5 days, %: 20%
  Sepsis-related mortality at 5 days, number of death: 4
  Sepsis-related mortality at 28 days, %: 20%
  Sepsis-related mortality at 28 days, number of death: 4
  Sepsis-related mortality at 90 days, %: 20%
  Sepsis-related mortality at 90 days, number of death: 4
[1]; 0.3 mg/kg/h (N = 12), 2nd dose column
  All-cause mortality at 90 days, number of death: 2
[1]; [7]
  All-cause mortality at 5 days, %: 17%
  All-cause mortality at 5 days, number of death: 2
  All-cause mortality at 28 days, %: 25%
  All-cause mortality at 28 days, number of death: 3
  All-cause mortality at 90 days, %: 33%
  All-cause mortality at 90 days, number of death: 4
[1]; [8]
  All-cause mortality at 5 days, %: 7.7%
  All-cause mortality at 5 days, number of death: 1
  All-cause mortality at 28 days, %: 15%
  All-cause mortality at 28 days, number of death: 2
  All-cause mortality at 90 days, %: 32%
  All-cause mortality at 90 days, number of death: 4
[1]; [9]
  All-cause mortality at 5 days, %: 8.3%
  All-cause mortality at 5 days, number of death: 1
  All-cause mortality at 28 days, %: 8.3%
  All-cause mortality at 28 days, number of death: 1
  All-cause mortality at 90 days, %: 17%
[1]; pooled (N = 37)
  All-cause mortality at 5 days, %: 11%
  All-cause mortality at 5 days, number of death: 4
  All-cause mortality at 28 days, %: 16%
  All-cause mortality at 28 days, number of death: 6
  All-cause mortality at 90 days, %: 27%
  All-cause mortality at 90 days, number of death: 10
[1]; [10]
  All-cause mortality at 28 days, %: 14%
  All-cause mortality at 28 days, number of death: 5
[2]; G2 subgroup (baseline sTREM-1 above the median 433 pg/mL) vs whole population and G1
  Ang-2 level, change from baseline: trend toward a more pronounced decrease
[2]; G2 subgroup vs whole population and G1
  IL-6 level, change from baseline: the same trend was observed
[2]; during the treatment, nangibotide-treated patients
  circulating levels of endothelial injury markers (Ang-2, VCAM-1, VGEFR-1 and E-selectin), inflammatory markers (IL-8, IL-10, MCP-1, TNF-α and IL-10) and sTREM-1: trend towards a decrease
[2]; subgroup of patients with high baseline sTREM-1 values
  sTREM-1 kinetics over time: trend towards a decrease in sTREM-1
[2]; whole population
  Ang-2 level, treatment effect: no apparent treatment effect
[2]; whole population, day 5/EOI from baseline
  sTREM-1 kinetics over time: no apparent changes over time
[3]
  anti-nangibotide antibodies in serum: No anti-nangibotide antibodies were found
